These results are taken from US7973047B2, “Beta-Secretase modulators and methods of use” (Amgen Inc., priority 2010, dated 2011).

The subject of this assay is Aβ40 in conditioned medium of cells stably expressing Amyloid Precursor Protein (APP). Kind of assay: BACE cell-based assay: Aβ40 in conditioned medium by sandwich ELISA. To be noted: cell based assay data of Table 4; unit inferred; read-out: Cell Assay. Here is the method: The cell-based assay measures inhibition or reduction of Aβ40 in conditioned medium of test compound treated cells expressing amyloid precursor protein.
Cells stably expressing Amyloid Precursor Protein (APP) were plated at a density of 40K cells/well in 96 well plates (Costar). The cells were cultivated for 24 hours at 37° C. and 5% CO2 in DMEM supplemented with 10% FBS. The test compounds were then added to cells in 10-point dose response concentrations with the starting concentration being either 100 μM or 10 μM. The compounds were diluted from stock solutions in DMSO and the final DMSO concentration of the test compounds on cells was 0.1%. After 24 h of incubation with the test compounds the supernatant conditioned media was collected and the Aβ40 levels were determined using a sandwich ELISA. The ICso of the compound was calculated from the percent of control or percent inhibition of Aβ40 as a function of the concentration of the test compound.
The sandwich ELISA to detect Aβ40 was performed in 96 well microtiter plates, which were pre-treated with goat anti-rabbit IgG (Pierce). The capture and detecting antibody pair that were used to detect Aβ40 from cell supernatants were affinity purified pAb40 (Biosource) and biotinylated 6E10 (Signet Labs Inc.), respectively. The optimal concentration for the pAb40 antibody was 3 μg/ml in Superblock/TBS (Pierce) that was supplemented with 0.05% Tween 20 (Sigma).
Cellular supernatants were incubated with the capture antibody for 3 h at 4° C., followed by 3 wash steps in TBS-tween (0.05%). The detecting antibody incubation was for 2 h at 4° C., again followed by the wash steps as described previously. The final readout of the ELISA is Time-Resolved Fluorescence (counts per minute) using Delfia reagents Streptavidin-Europium and Enhancement solutions (Perkin Elmer) and the Victor 2 multilabel counter (Perkin Elmer).
For orientation: ELISA stands for enzyme-linked immunosorbent assay.

With `CC(=O)N[C@@H](Cc1ccc(F)cc1)[C@H](O)CN[C@@H]1CC2(CCCC2)C(=O)c2ccc(CC(C)(C)C)cc21` [compound 564, N-((1S,2R)-3-(((4′R)-6′-(2,2-dimethylpropyl)-1′-oxo-3′,4′-dihydro-1′H-spiro[cyclopentane-1,2′-naphthalen]-4′-yl)amino)-1-((4-fluorophenyl)methyl)-2-hydroxypropyl)acetamide], the IC50 was determined as 569 nM.
The result for `CCc1cnc2c(c1)[C@@H](NC[C@@H](O)[C@H](Cc1cccc(F)c1)NC(C)=O)CC1(CCC1)O2` [compound 566] reads 29 nM; that for `CC(=O)N[C@@H](Cc1cc(F)cc(Cl)c1)[C@H](O)CN[C@H]1CC2(CCC2)Oc2ncc(CC(C)(C)C)cc21` [compound 567], 3.27 nM.
The result for `CC(=O)N[C@@H](Cc1ccc(F)cc1)[C@H](O)CN[C@H]1CC2(CCC2)Oc2ncc(CC(C)(C)C)cc21` [compound 568] reads 8.13 nM; that for `CC(=O)N[C@@H](Cc1cccc(F)c1)[C@H](O)CN[C@H]1CC2(CCC2)Oc2cnc(CC(C)(C)C)cc21` [compound 569], 5.22 nM.
As for `CC(=O)N[C@@H](Cc1ccc(F)cc1)[C@H](O)CN[C@H]1CC2(CCC2)Oc2cnc(CC(C)(C)C)cc21` [compound 570], the IC50 was determined as 22.1 nM.
`CC(=O)N[C@@H](Cc1ccc(F)cc1)[C@H](O)CN[C@H]1CC2(CCC2)Oc2ncc(CC(C)(C)F)cc21` [compound 571]: the IC50 was 80.9 nM.
The result for `CC(=O)N[C@@H](Cc1ccc(F)cc1)[C@H](O)CN[C@H]1CC(C)(C)Oc2ncc(CC(C)(C)C)cc21` [compound 572] reads 13.8 nM; that for `CC(=O)N[C@@H](Cc1cc(F)cc(F)c1)[C@H](O)CN[C@H]1CC(C)(C)Oc2ncc(CC(C)(C)C)cc21` [compound 573], 3.12 nM; that for `CC(=O)N[C@@H](Cc1ccc(F)cc1)[C@@H](O)CN[C@H]1CC2(CCC2)Oc2ncc(CC(C)(C)F)cc21` [compound 574], 111 nM.
As to `CC(=O)N[C@@H](Cc1ccc(F)c(C)c1)[C@H](O)CN[C@H]1CC2(CCC2)Oc2ncc(CC(C)(C)C)cc21` [compound 575], the IC50 was found to be 4.64 nM.
Turning to `CC(=O)N[C@@H](Cc1ccc(C)c(F)c1)[C@H](O)CN[C@H]1CC2(CCC2)Oc2ncc(CC(C)(C)C)cc21` [compound 576], the IC50 came to 2.15 nM.
As for `COC(=O)N[C@@H](Cc1ccc(F)cc1)[C@H](O)CN[C@H]1CC2(CCC2)Oc2ncc(CC(C)(C)C)cc21` [compound 577], the figure is 60 nM; as for `CC(=O)N[C@@H](Cc1ccc(F)c(C)c1)[C@H](O)CN[C@H]1CC2(CCC2)Oc2ncc(CC(C)(C)F)cc21` [compound 578], 28.5 nM.
The result for `COc1cccc(C[C@H](NC(C)=O)[C@H](O)CN[C@H]2CC3(CCC3)Oc3ncc(CC(C)(C)C)cc32)c1` [compound 579] reads 4.61 nM.
As for `CC(=O)N[C@@H](Cc1ccc(Cl)cc1)[C@H](O)CN[C@H]1CC2(CC2)Oc2ncc(CC(C)(C)C)cc21` [compound 580], the figure is 120 nM.
As to `COCC(C)(C)Cc1cnc2c(c1)[C@@H](NC[C@@H](O)[C@H](Cc1ccc(F)cc1)NC(C)=O)CC1(CCC1)O2` [compound 581], the IC50 was 137 nM.
Consider `CC(=O)N[C@@H](Cc1ccccc1)[C@H](O)CN[C@H]1CC2(CCC2)Oc2c1cc(CC(C)(C)C)nc2N(C)C` [compound 582], for which the IC50 came out at 31.8 nM.
As for `CC(=O)N[C@@H](Cc1ccc(F)cc1)[C@H](O)CN[C@H]1CC2(CCC2)Oc2c1cc(CC(C)(C)C)nc2Cl` [compound 583], the figure is 112 nM; as for `CCNc1nc(CC(C)(C)C)cc2c1OC1(CCC1)C[C@@H]2NC[C@@H](O)[C@H](Cc1ccc(F)cc1)NC(C)=O` [compound 584], 5.29 nM; as for `CC(=O)N[C@@H](Cc1ccc(F)cc1)[C@H](O)CN[C@H]1CC2(CCC2)Oc2c1cc(CC(C)(C)C)nc2NC(C)C` [compound 585], 22.3 nM.
For the molecule `CC(=O)N[C@@H](Cc1ccc(F)cc1)[C@H](O)CN[C@H]1CC2(CCC2)Oc2c1cc(CC(C)(C)C)nc2NC1CC1` [compound 586], the IC50 came out at 14 nM.
As for `CC(=O)N[C@@H](Cc1ccc(F)cc1)[C@H](O)CN[C@H]1CC2(CCC2)Oc2c1cc(CC(C)(C)C)nc2NC1CCOCC1` [compound 587], the figure is 8.48 nM; as for `CC(=O)N[C@@H](Cc1ccc(F)cc1)[C@H](O)CN[C@H]1CC2(CCC2)Oc2c1cc(CC(C)(C)C)nc2N(C)C` [compound 588], 52.3 nM.
As for `CC(=O)N[C@@H](Cc1ccc(F)cc1)[C@H](O)CN[C@H]1CC2(CCC2)Oc2c1cc(CC(C)(C)C)nc2NC(C)(C)C` [compound 589], the figure is 615 nM.
As for `CNc1nc(CC(C)(C)C)cc2c1OC1(CCC1)C[C@@H]2NC[C@@H](O)[C@H](Cc1cccc(F)c1)NC(C)=O` [compound 590], the figure is 1.41 nM; as for `CCNc1nc(CC(C)(C)C)cc2c1OC1(CCC1)C[C@@H]2NC[C@@H](O)[C@H](Cc1cccc(F)c1)NC(C)=O` [compound 591], 2.98 nM; as for `CC(=O)N[C@@H](Cc1cccc(F)c1)[C@H](O)CN[C@H]1CC2(CCC2)Oc2c1cc(CC(C)(C)C)nc2NC1CCOCC1` [compound 592], 3.24 nM.
Consider `CC(=O)N[C@@H](Cc1cccc(F)c1)[C@H](O)CN[C@H]1CC2(CCC2)Oc2c1cc(CC(C)(C)C)nc2N(C)C` [compound 593], for which the IC50 was determined as 23.6 nM.
In the case of `CC(=O)N[C@@H](Cc1cccc(F)c1)[C@H](O)CN[C@H]1CC2(CCC2)Oc2c1cc(CC(C)(C)C)[nH]c2=O` [compound 594], the IC50 is 23.4 nM.
`CC(=O)N[C@@H](Cc1cc(F)cc(F)c1)[C@H](O)CN[C@H]1CC2(CCC2)Oc2c1cc(CC(C)(C)C)nc2N(C)C` [compound 598]: the IC50 came to 26.8 nM.
As for `CC(=O)N[C@@H](Cc1ccc(N(C)C)cc1)[C@H](O)CN[C@H]1CC2(CCC2)Oc2c1cc(CC(C)(C)C)nc2N(C)C` [compound 599], the figure is 167 nM; as for `CC(=O)N[C@@H](Cc1ccc(Cl)cc1)[C@H](O)CN[C@H]1CC2(CCC2)Oc2c1cc(CC(C)(C)C)nc2N(C)C` [compound 600], 634 nM.
The result for `CC(=O)N[C@@H](Cc1cccc(F)c1F)[C@H](O)CN[C@H]1CC2(CCC2)Oc2c1cc(CC(C)(C)C)nc2N(C)C` [compound 601] reads 227 nM; that for `CC(=O)N[C@@H](Cc1cccc(F)c1)[C@H](O)CN[C@H]1CC2(CCC2)Oc2c1cc(CC(C)(C)C)nc2NC1CC1` [compound 602], 2.89 nM.
The result for `CC(=O)N[C@@H](Cc1cccc(F)c1)[C@H](O)CN[C@H]1CC2(CCC2)Oc2c1cc(CC(C)(C)C)nc2NCCNC(=O)OC(C)(C)C` [compound 603] reads 12.9 nM.
On to `COC1CN(c2nc(CC(C)(C)C)cc3c2OC2(CCC2)C[C@@H]3NC[C@@H](O)[C@H](Cc2cccc(F)c2)NC(C)=O)C1` [compound 604], for which the IC50 came out at 5.79 nM.
For the molecule `CC(=O)N[C@@H](Cc1cccc(F)c1)[C@H](O)CN[C@H]1CC2(CCC2)Oc2c1cc(CC(C)(C)C)nc2N` [compound 605], the IC50 worked out at 1.56 nM.
With `CC(=O)N[C@@H](Cc1cccc(F)c1)[C@H](O)CN[C@H]1CC2(CCC2)Oc2c1cc(CC(C)(C)C)nc2NCCN` [compound 606], the IC50 turned out to be 4.43 nM.
As for `CC(=O)N[C@@H](Cc1ccc(F)cc1)[C@H](O)CN[C@@H]1CC2(CCC2)Oc2c1cc(CC(C)(C)C)nc2OC(C)C` [compound 607], the figure is 80.3 nM.
